Results as given in ChEMBL document CHEMBL3124778, “Structure-based design of new dihydrofolate reductase antibacterial agents: 7-(benzimidazol-1-yl)-2,4-diaminoquinazolines” (J Med Chem, 2014).
In brackets after ≈: the same amount, converted by molar mass.

Experiments:
[1] = target: Dihydrofolate reductase (Staphylococcus aureus, UniProt P0A017); assay: Inhibition of Staphylococcus aureus DHFR using dihydrofolate as substrate preincubated for 10 mins followed by substrate addition by spectrophotometric analysis in presence of NADPH
Chain of Dihydrofolate reductase (Staphylococcus aureus, UniProt P0A017) (P0A017 whole entry): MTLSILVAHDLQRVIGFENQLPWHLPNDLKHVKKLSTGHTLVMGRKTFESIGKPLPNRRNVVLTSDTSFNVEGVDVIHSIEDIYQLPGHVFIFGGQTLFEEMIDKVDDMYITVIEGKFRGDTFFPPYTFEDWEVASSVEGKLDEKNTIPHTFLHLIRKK

[2] = target: T1, Dihydrofolate reductase (Homo sapiens, UniProt P00374); assay: Inhibition of human DHFR using dihydrofolate as substrate preincubated for 10 mins followed by substrate addition by spectrophotometric analysis in presence of NADPH
T1 sequence (P00374 whole entry): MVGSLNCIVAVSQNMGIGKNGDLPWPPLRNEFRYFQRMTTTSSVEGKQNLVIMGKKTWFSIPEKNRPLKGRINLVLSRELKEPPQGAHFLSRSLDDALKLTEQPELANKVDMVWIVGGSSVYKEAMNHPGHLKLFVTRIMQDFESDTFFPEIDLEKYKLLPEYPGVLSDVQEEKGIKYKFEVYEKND

[3] = Selectivity ratio of Ki for human DHFR to Ki for Staphylococcus aureus DHFR
[4] = test system: Staphylococcus aureus; assay: Antibacterial activity against TMP-resistant Staphylococcus aureus expressing DHFR F99Y mutant after 18 to 24 hrs by alamar Blue assay; format: functional
[5] = test system: Staphylococcus aureus; assay: Antibacterial activity against Staphylococcus aureus ATCC 13709 after 18 to 24 hrs by alamar Blue assay; format: functional
[6] = test system: Staphylococcus aureus; assay: Antibacterial activity against Staphylococcus aureus ATCC 13709 after 18 to 24 hrs by alamar Blue assay in presence of 20% heat inactivated mouse serum; format: functional
[7] = test system: Streptococcus pneumoniae; assay: Antibacterial activity against Streptococcus pneumoniae ATCC 700669 after 18 to 24 hrs by alamar Blue assay; format: functional
[8] = test system: Streptococcus pneumoniae; assay: Antibacterial activity against Streptococcus pneumoniae ATCC BAA-255 after 18 to 24 hrs by alamar Blue assay; format: functional
[9] = test system: Streptococcus pneumoniae; assay: Antibacterial activity against Streptococcus pneumoniae ATCC 700671 after 18 to 24 hrs by alamar Blue assay; format: functional
[10] = test system: Streptococcus pneumoniae; assay: Antibacterial activity against Streptococcus pneumoniae ATCC 700904 after 18 to 24 hrs by alamar Blue assay; format: functional
[11] = test system: Streptococcus pneumoniae; assay: Antibacterial activity against Streptococcus pneumoniae ATCC 49619 after 18 to 24 hrs by alamar Blue assay; format: functional
[12] = test system: Streptococcus pneumoniae; assay: Antibacterial activity against Streptococcus pneumoniae ATCC 700674 after 18 to 24 hrs by alamar Blue assay; format: functional
[13] = test system: Streptococcus pneumoniae; assay: Antibacterial activity against Streptococcus pneumoniae ATCC 700675 after 18 to 24 hrs by alamar Blue assay; format: functional
[14] = test system: Streptococcus pneumoniae; assay: Antibacterial activity against Streptococcus pneumoniae after 18 to 24 hrs by alamar Blue assay; format: functional
[15] = test system: Streptococcus pneumoniae; assay: Antibacterial activity against Streptococcus pneumoniae ATCC 700677 after 18 to 24 hrs by alamar Blue assay; format: functional
[16] = test system: Streptococcus pneumoniae; assay: Antibacterial activity against Streptococcus pneumoniae ATCC 51916 after 18 to 24 hrs by alamar Blue assay; format: functional
[17] = test system: Streptococcus pneumoniae; assay: Antibacterial activity against Streptococcus pneumoniae ATCC 700676 after 18 to 24 hrs by alamar Blue assay; format: functional

| Structure (SMILES) | Ki [1] [nM] | Ki [2] [nM] | Ratio Ki [3] | MIC [4] [mg/L] | MIC [5] [mg/L] | MIC [6] [mg/L] | further results |
| --- | --- | --- | --- | --- | --- | --- | --- |
| Cc1cc2nc(-c3ccoc3)n(-c3ccc4c(N)nc(N)nc4c3)c2cc1C | 0.008 | 723 | 90000 | 2 (≈ 5.4 µM) | 0.06 (≈ 0.162 µM) | 1 | – |
| COc1cc(Cc2cnc(N)nc2N)c2c(c1OC)OC(C1CC1)C=C2 (stereo not drawn) | – | – | – | – | 0.125 (≈ 0.353 µM) | 0.125 | MIC [7]: 8 mg/L (≈ 22.6 µM); MIC [8]: ≤ 0.5 mg/L; MIC [9]: 16 mg/L (≈ 45.1 µM); MIC [10]: 4 mg/L (≈ 11.3 µM); MIC [11]: 0.125 mg/L (≈ 0.353 µM); MIC [12]: 8 mg/L (≈ 22.6 µM); MIC [13]: ≤ 0.5 mg/L; MIC50 [14]: ≤ 0.5 mg/L; MIC90 [14]: 8 mg/L (≈ 22.6 µM); MIC [15]: ≤ 0.5 mg/L; MIC [16]: 1 mg/L (≈ 2.82 µM); MIC [17]: ≤ 0.5 mg/L |
| Cc1cc2nc(C3CCCO3)n(-c3ccc4c(N)nc(N)nc4c3)c2cc1C (stereo not drawn) | 0.2 | 749 | – | 16 (≈ 42.7 µM) | 0.5 (≈ 1.34 µM) | > 16 | – |
| COc1cc(Cc2cnc(N)nc2N)cc(OC)c1OC [TRIMETHOPRIM] | – | – | – | – | – | – | MIC [7]: > 64 mg/L; MIC [8]: 0.5 mg/L (≈ 1.72 µM); MIC [9]: > 64 mg/L; MIC [10]: > 64 mg/L; MIC [11]: 4 mg/L (≈ 13.8 µM); MIC [12]: > 64 mg/L; MIC [13]: 8 mg/L (≈ 27.6 µM); MIC50 [14]: 8 mg/L (≈ 27.6 µM); MIC90 [14]: > 64 mg/L; MIC [15]: 4 mg/L (≈ 13.8 µM); MIC [16]: > 64 mg/L; MIC [17]: 4 mg/L (≈ 13.8 µM) |
| Cc1cc2nc(-c3ccncc3)n(-c3ccc4c(N)nc(N)nc4c3)c2cc1C | 0.026 | 437 | – | 8 (≈ 21 µM) | 0.125 (≈ 0.328 µM) | 0.5 | – |
| Cc1cc2nc(-c3ccsc3)n(-c3ccc4c(N)nc(N)nc4c3)c2cc1C | – | – | – | 2 (≈ 5.17 µM) | 0.03 (≈ 0.0776 µM) | – | – |
| COc1cc2nc(-c3nccs3)n(-c3cc4nc(N)nc(N)c4cc3Cl)c2cc1OC | – | – | 29000 | 2 (≈ 4.41 µM) | 0.125 (≈ 0.275 µM) | – | – |
| Cc1cc2nc(-c3cccnc3)n(-c3ccc4c(N)nc(N)nc4c3)c2cc1C | 0.26 | 1560 | > 1250 | 32 (≈ 83.9 µM) | 0.5 (≈ 1.31 µM) | 2 | – |
| COc1ccc(-c2nc3cc(C)c(C)cc3n2-c2ccc3c(N)nc(N)nc3c2)cc1 | 0.34 | 2300 | – | > 64 | 2 (≈ 4.87 µM) | 8 | – |
| Cc1cc2nc(-c3nccs3)n(-c3cc4nc(N)nc(N)c4cc3C)c2cc1C | – | – | 97 | 0.125 (≈ 0.311 µM) | 0.03 (≈ 0.0747 µM) | 0.06 | – |
| Cc1cc2ncn(-c3ccc4c(N)nc(N)nc4c3)c2cc1C | 1.7 | 1610 | – | > 64 | 2 (≈ 6.57 µM) | 32 | – |
| COc1cc2nc(-c3ccco3)n(-c3cc4nc(N)nc(N)c4cc3Cl)c2cc1OC | 0.024 | 610 | – | 8 (≈ 18.3 µM) | 0.5 (≈ 1.14 µM) | 0.5 | – |
| Cc1cc2nc(-c3cccs3)n(-c3ccc4c(N)nc(N)nc4c3)c2cc1C | – | – | – | 0.25 (≈ 0.647 µM) | 0.015 (≈ 0.0388 µM) | – | MIC [7]: 4 mg/L (≈ 10.3 µM); MIC [8]: ≤ 0.125 mg/L; MIC [9]: 32 mg/L (≈ 82.8 µM); MIC [10]: 4 mg/L (≈ 10.3 µM); MIC [11]: ≤ 0.5 mg/L; MIC [12]: 16 mg/L (≈ 41.4 µM); MIC [13]: 1 mg/L (≈ 2.59 µM); MIC50 [14]: 1 mg/L (≈ 2.59 µM); MIC90 [14]: 16 mg/L (≈ 41.4 µM); MIC [15]: 0.25 mg/L (≈ 0.647 µM); MIC [16]: 4 mg/L (≈ 10.3 µM); MIC [17]: 0.25 mg/L (≈ 0.647 µM) |
| COc1cc2nc(-c3nccs3)n(-c3ccc4c(N)nc(N)nc4c3)c2cc1OC | – | – | 5300 | 16 (≈ 38.1 µM) | – | – | – |
| Cc1cc2nc(-c3cncn3C)n(-c3ccc4c(N)nc(N)nc4c3)c2cc1C | 1.1 | 2920 | – | 64 (≈ 166 µM) | 4 (≈ 10.4 µM) | 32 | – |
